Laboratory results: patent US5169838A, “Benzopyranone-β-D-thioxylosides and their use in therapy” (Fournier Industrie et Sante, priority 1989, dated 1992)

test: venous thrombosis (venous stasis under hypercoagulation with activated factor X, Wessler technique); format: in vivo, male Wistar rats; conditions: po, administered orally, rat, thrombosis induced 4 hours after treatment, thrombus weighed
Method: The study is performed on unfasted male Wistar rats weighing 250 to 280 g, divided up into groups of 10 animals each. The test products are administered orally as a suspension in PEG 400. A thrombosis is induced 4 hours after this treatment and the thrombus formed is removed and weighed.

Compound | inhibition in vivo at 3 mg/kg [%]
CC(=O)O[C@@H]1[C@@H](OC(C)=O)[C@H](Sc2ccc3oc(=O)cc(C)c3c2)SC[C@H]1OC(C)=O [Example 10a, 4-methyl-2-oxo-2H-1-benzopyran-6-yl 2,3,4-tri-O-acetyl-1,5-dithio-β-D-xylopyranoside] | 32
O=c1cc(C(F)(F)F)c2ccc(S[C@@H]3SC[C@@H](O)[C@H](O)[C@H]3O)cc2o1 [Example 11, 4-trifluoromethyl-2-oxo-2H-1-benzopyran-7-yl 1,5-dithio-β-D-xylopyranoside] | 36
Cc1c(Cl)c(=O)oc2cc(S[C@@H]3SC[C@@H](O)[C@H](O)[C@H]3O)ccc12 [Example 12, 3-chloro-4-methyl-2-oxo-2H-1-benzopyran-7-yl 1,5-dithio-β-D-xylopyranoside] | 65
CC(=O)O[C@@H]1[C@@H](OC(C)=O)[C@H](Sc2ccc3c(C)c(Cl)c(=O)oc3c2)SC[C@H]1OC(C)=O [Example 12a, 3-chloro-4-methyl-2-oxo-2H-1-benzopyran-7-yl 2,3,4-tri-O-acetyl-1,5-dithio-β-D-xylopyranoside] | 32
CCc1cc(=O)oc2cc(S[C@@H]3SC[C@@H](O)[C@H](O)[C@H]3O)ccc12 [Example 13, 4-ethyl-2-oxo-2H-1-benzopyran-7-yl 1,5-dithio-β-D-xylopyranoside] | 54
CCc1cc(=O)oc2cc(S[C@@H]3SC[C@@H](OC(C)=O)[C@H](OC(C)=O)[C@H]3OC(C)=O)ccc12 [Example 13a, 4-ethyl-2-oxo-2H-1-benzopyran-7-yl 2,3,4-tri-O-acetyl-1,5-dithio-β-D-xylopyranoside] | 58
CCCc1cc(=O)oc2cc(S[C@@H]3SC[C@@H](O)[C@H](O)[C@H]3O)ccc12 [Example 14, 2-oxo-4-propyl-2H-1-benzopyran-7-yl 1,5-dithio-β-D-xylopyranoside] | 43
CCCc1cc(=O)oc2cc(S[C@@H]3SC[C@@H](OC(C)=O)[C@H](OC(C)=O)[C@H]3OC(C)=O)ccc12 [Example 14a, 2-oxo-4-propyl-2H-1-benzopyran-7-yl 2,3,4-tri-O-acetyl-1,5-dithio-β-D-xylopyranoside] | 25
O=c1oc2cc(S[C@@H]3SC[C@@H](O)[C@H](O)[C@H]3O)ccc2c2c1CCCC2 [Example 15, 7,8,9,10-tetrahydro-6-oxo-6H-dibenzo[b,d]pyran-3-yl 1,5-dithio-β-D-xylopyranoside] | 31
CC(=O)O[C@@H]1[C@@H](OC(C)=O)[C@H](Sc2ccc3c4c(c(=O)oc3c2)CCCC4)SC[C@H]1OC(C)=O [Example 15a, 7,8,9,10-tetrahydro-6-oxo-6H-dibenzo[b,d]pyran-3-yl 2,3,4-tri-O-acetyl-1,5-dithio-β-D-xylopyranoside] | 23
Cc1cc(=O)oc2cc(O[C@@H]3SC[C@@H](O)[C@H](O)[C@H]3O)ccc12 [Example 16, 4-methyl-2-oxo-2H-1-benzopyran-7-yl 5-thio-β-D-xylopyranoside] | 63
CC(=O)O[C@@H]1[C@@H](OC(C)=O)[C@H](OC(C)=O)CS[C@H]1Oc1ccc2c(C)cc(=O)oc2c1 [Example 16a, 4-methyl-2-oxo-2H-1-benzopyran-7-yl 2,3,4-tri-O-acetyl-5-thio-β-D-xylopyranoside] | 63
Cc1c(Cl)c(=O)oc2cc(O[C@@H]3SC[C@@H](O)[C@H](O)[C@H]3O)ccc12 [Example 17, 3-chloro-4-methyl-2-oxo-2H-1-benzopyran-7-yl 5-thio-β-D-xylopyranoside] | 64
CC(=O)O[C@@H]1[C@@H](OC(C)=O)[C@H](OC(C)=O)CS[C@H]1Oc1ccc2c(C)c(Cl)c(=O)oc2c1 [Example 17a, 3-chloro-4-methyl-2-oxo-2H-1-benzopyran-7-yl 2,3,4-tri-O-acetyl-5-thio-β-D-xylopyranoside] | 67
Cc1c(-c2ccccc2)c(=O)oc2cc(O[C@@H]3SC[C@@H](O)[C@H](O)[C@H]3O)ccc12 [Example 18, 4-methyl-2-oxo-3-phenyl-2H-1-benzopyran-7-yl 5-thio-β-D-xylopyranoside] | 43
CC(=O)O[C@@H]1[C@@H](OC(C)=O)[C@H](OC(C)=O)CS[C@H]1Oc1ccc2c(C)c(-c3ccccc3)c(=O)oc2c1 [Example 18a, 4-methyl-2-oxo-3-phenyl-2H-1-benzopyran-7-yl 2,3,4-tri-O-acetyl-5-thio-β-D-xylopyranoside] | 20

Compound | inhibition in vivo at 3 mg/kg [%]
CC(C)c1cc(=O)oc2cc(O[C@@H]3SC[C@@H](O)[C@H](O)[C@H]3O)ccc12 [Example 19, 4-(1-methylethyl)-2-oxo-2H-1-benzopyran-7-yl 5-thio-β-D-xylopyranoside] | 36
Cc1cc(=O)c2ccc(O[C@@H]3SC[C@@H](O)[C@H](O)[C@H]3O)cc2o1 [Example 20, 2-methyl-4-oxo-4H-1-benzopyran-7-yl 5-thio-β-D-xylopyranoside] | 53
CC(=O)O[C@@H]1[C@@H](OC(C)=O)[C@H](OC(C)=O)CS[C@H]1Oc1ccc2c(=O)cc(C)oc2c1 [Example 20a, 2-methyl-4-oxo-4H-1-benzopyran-7-yl 2,3,4-tri-O-acetyl-5-thio-β-D-xylopyranoside] | 20
CCc1cc(=O)c2ccc(O[C@@H]3SC[C@@H](O)[C@H](O)[C@H]3O)cc2o1 [Example 21, 2-ethyl-4-oxo-4H-1-benzopyran-7-yl 5-thio-β-D-xylopyranoside] | 70
CCc1cc(=O)c2ccc(O[C@@H]3SC[C@@H](OC(C)=O)[C@H](OC(C)=O)[C@H]3OC(C)=O)cc2o1 [Example 21a, 2-ethyl-4-oxo-4H-1-benzopyran-7-yl 2,3,4-tri-O-acetyl-5-thio-β-D-xylopyranoside] | 42
Cc1oc2cc(O[C@@H]3SC[C@@H](O)[C@H](O)[C@H]3O)ccc2c(=O)c1C [Example 22, 2,3-dimethyl-4-oxo-4H-1-benzopyran-7-yl 5-thio-β-D-xylopyranoside] | 36
CC(=O)O[C@@H]1[C@@H](OC(C)=O)[C@H](OC(C)=O)CS[C@H]1Oc1ccc2c(=O)c(C)c(C)oc2c1 [Example 22a, 2,3-dimethyl-4-oxo-4H-1-benzopyran-7-yl 2,3,4-tri-O-acetyl-5-thio-β-D-xylopyranoside] | 66
Cc1cc(=O)c2ccc(S[C@@H]3SC[C@@H](O)[C@H](O)[C@H]3O)cc2o1 [Example 23, 2-methyl-4-oxo-4H-1-benzopyran-7-yl 1,5-dithio-β-D-xylopyranoside] | 26
Cc1cc(=O)c2cc(O[C@@H]3SC[C@@H](O)[C@H](O)[C@H]3O)ccc2o1 [Example 24, 2-methyl-4-oxo-4H-1-benzopyran-6-yl 5-thio-β-D-xylopyranoside] | 36
O=c1cc(-c2ccccc2)oc2cc(O[C@@H]3SC[C@@H](O)[C@H](O)[C@H]3O)ccc12 [Example 25, 4-oxo-2-phenyl-4H-1-benzopyran-7-yl 5-thio-β-D-xylopyranoside] | 28
Cc1oc2cc(S[C@@H]3SC[C@@H](O)[C@H](O)[C@H]3O)ccc2c(=O)c1C [Example 26, 2,3-dimethyl-4-oxo-4H-1-benzopyran-7-yl 1,5-dithio-β-D-xylopyranoside] | 27
CCc1cc(=O)c2ccc(S[C@@H]3SC[C@@H](O)[C@H](O)[C@H]3O)cc2o1 [Example 27, 2-ethyl-4-oxo-4H-1-benzopyran-7-yl 1,5-dithio-β-D-xylopyranoside] | 26
CCc1cc(=O)c2ccc(S[C@@H]3SC[C@@H](OC(C)=O)[C@H](OC(C)=O)[C@H]3OC(C)=O)cc2o1 [Example 27a, 2-ethyl-4-oxo-4H-1-benzopyran-7-yl 2,3,4-tri-O-acetyl-1,5-dithio-β-D-xylopyranoside] | 23
Cc1oc2cc(O[C@@H]3SC[C@@H](O)[C@H](O)[C@H]3O)ccc2c(=O)c1Br [Example 28, 3-bromo-2-methyl-4-oxo-4H-1-benzopyran-7-yl 5-thio-β-D-xylopyranoside] | 49
CC(=O)O[C@@H]1[C@@H](OC(C)=O)[C@H](OC(C)=O)CS[C@H]1Oc1ccc2c(=O)c(Br)c(C)oc2c1 [Example 28a, 3-bromo-2-methyl-4-oxo-4H-1-benzopyran-7-yl 2,3,4-tri-O-acetyl-5-thio-β-D-xylopyranoside] | 25
